Measured values: article PMC10922308 (Cell chemical biology, 2023)
One block for each molecule: values may come before it.

How the values were obtained:
Format in all cases: cell-based
PIM2 = PIM2 (Homo sapiens, UniProt Q9P1W9); test: PROTAC degradation immunoblot in PC3 cells
PIM1 [1] = target: T1, PIM1 (Homo sapiens, UniProt P11309)
PIM3 = PIM3 (Homo sapiens, UniProt Q86V86); test: PROTAC degradation immunoblot in PC3 cells
PIM1 [2] = target: T1, PIM1; test: PROTAC degradation immunoblot in PC3-dox-PIM1 cells
PIM1 [3] = target: T1, PIM1; test: as above; remark: listed apart in the source

T1 sequence (P11309 whole entry): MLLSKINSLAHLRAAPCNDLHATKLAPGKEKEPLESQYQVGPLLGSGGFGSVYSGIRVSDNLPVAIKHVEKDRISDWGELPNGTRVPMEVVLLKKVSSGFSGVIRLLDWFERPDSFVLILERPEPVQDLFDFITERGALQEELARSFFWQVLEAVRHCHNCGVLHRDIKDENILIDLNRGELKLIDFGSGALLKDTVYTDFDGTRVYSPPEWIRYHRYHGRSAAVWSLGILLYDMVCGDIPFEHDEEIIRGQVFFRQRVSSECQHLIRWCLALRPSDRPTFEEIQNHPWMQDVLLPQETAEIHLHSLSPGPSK
T1 sequence (P40337 whole entry partner): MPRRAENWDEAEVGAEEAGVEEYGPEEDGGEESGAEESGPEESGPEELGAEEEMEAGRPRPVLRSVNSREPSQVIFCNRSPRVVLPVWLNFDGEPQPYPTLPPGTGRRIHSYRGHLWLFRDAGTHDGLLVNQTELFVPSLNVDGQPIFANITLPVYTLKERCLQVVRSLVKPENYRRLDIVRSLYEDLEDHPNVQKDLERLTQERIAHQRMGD
Sequence of PIM2 (Q9P1W9 whole entry): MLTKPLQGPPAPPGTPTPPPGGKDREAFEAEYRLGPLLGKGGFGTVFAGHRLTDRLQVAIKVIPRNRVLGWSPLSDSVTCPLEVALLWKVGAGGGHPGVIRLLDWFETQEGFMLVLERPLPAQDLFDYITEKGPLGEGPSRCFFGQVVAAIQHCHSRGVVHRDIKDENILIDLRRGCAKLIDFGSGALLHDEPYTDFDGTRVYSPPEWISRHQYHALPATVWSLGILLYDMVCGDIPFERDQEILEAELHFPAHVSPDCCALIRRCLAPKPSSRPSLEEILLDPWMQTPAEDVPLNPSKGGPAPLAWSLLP
Sequence of PIM2 (P40337 whole entry partner): as the sequence (P40337 whole entry partner) above
Sequence of PIM3 (P40337 whole entry partner): as the sequence (P40337 whole entry partner) above

PROTAC degradation immunoblot in PC3 cells (PIM2): 3.75 µM
PROTAC degradation immunoblot in PC3 cells, with VH298, MG-132, MLN4924, cis-epi (PIM1 [1]): 0.75 µM
PROTAC degradation immunoblot in PC3 cells (PIM3): 1.5 µM
SMILES: Cc1ncsc1-c1ccc([C@H](C)NC(=O)[C@@H]2C[C@@H](O)CN2C(=O)[C@@H](NC(=O)CCCCCCC(=O)N2CCC(CNc3ccc4ncc(-c5cccc(OC(F)(F)F)c5)n4n3)CC2)C(C)(C)C)cc1 [SGI-1776-VHL-02, (2S,4R)-1-((S)-3,3-dimethyl-2-(8-oxo-8-(4-(((3-(3-(trifluoromethoxy)phenyl)imidazo[1,2-b]pyridazin-6-yl)amino)methyl)piperidin-1-yl)octanamido)butanoyl)-4-hydroxy-N-((S)-1-(4-(4-methylthiazol-5-yl)phenyl)ethyl)pyrrolidine-2-carboxamide]

PROTAC degradation immunoblot in PC3 cells, with VH298, MG-132, MLN4924, cis-epi (PIM1 [1]): 0.75 µM
SMILES: Cc1ncsc1-c1ccc([C@H](C)NC(=O)[C@@H]2C[C@@H](O)CN2C(=O)[C@@H](NC(=O)CCCCCCC(=O)N[C@@H]2CC(c3ccncc3NC(=O)c3ccc(F)c(-c4c(F)cccc4F)n3)C[C@H](C)C2)C(C)(C)C)cc1 (stereo partly drawn) [PIM447-VHL-01, N^1-((1S,5S)-3-(3-(6-(2,6-difluorophenyl)-5-fluoropicolinamido)pyridin-4-yl)-5-methylcyclohexyl)-N^8-((S)-1-((2S,4R)-4-hydroxy-2-(((S)-1-(4-(4-methylthiazol-5-yl)phenyl)ethyl)carbamoyl)pyrrolidin-1-yl)-3,3-dimethyl-1-oxobutan-2-yl)octanediamide]

PROTAC degradation immunoblot in PC3-dox-PIM1 cells (hook effect seen) (PIM1 [2]): 0.75 µM
SMILES: Cc1ncsc1-c1ccc([C@H](C)NC(=O)[C@@H]2C[C@@H](O)CN2C(=O)[C@@H](NC(=O)CCOCCOCCN2CCC(CNc3ccc4ncc(-c5cccc(OC(F)(F)F)c5)n4n3)CC2)C(C)(C)C)cc1 [SGI-1776-VHL-01, (2S,4R)-1-((S)-3,3-dimethyl-2-(3-(2-(2-(4-(((3-(3-(trifluoromethoxy)phenyl)imidazo[1,2-b]pyridazin-6-yl)amino)methyl)piperidin-1-yl)ethoxy)ethoxy)propanamido)butanoyl)-4-hydroxy-N-((S)-1-(4-(4-methylthiazol-5-yl)phenyl)ethyl)pyrrolidine-2-carboxamide]

PROTAC degradation immunoblot in PC3-dox-PIM1 cells (PIM1 [3]): 6.25 µM
SMILES: Cc1ncsc1-c1ccc([C@H](C)NC(=O)[C@@H]2C[C@@H](O)CN2C(=O)[C@@H](NC(=O)CCCCCCC(=O)N[C@H]2CCCN(c3c(/C=C4\SC(=O)NC4=O)cccc3-c3ccccc3)C2)C(C)(C)C)cc1 [AZD1208-VHL-01, N^1-((S)-1-(3-((Z)-(2,4-dioxothiazolidin-5-ylidene)methyl)-[1,1’-biphenyl]-2-yl)piperidin-3-yl)-N^8-((S)-1-((2S,4R)-4-hydroxy-2-(((S)-1-(4-(4-methylthiazol-5-yl)phenyl)ethyl)carbamoyl)pyrrolidin-1-yl)-3,3-dimethyl-1-oxobutan-2-yl)octanediamide]
